According to ChEMBL document CHEMBL1121622, “Urinary metabolites of timolol from humans and laboratory animals. Syntheses and beta-adrenergic blocking activities” (1980):

Experiments:
Conditions in all cases: Canis lupus familiaris
[1] = tested on: Canis familiaris; assay: Beta-adrenergic blocking activity in anesthetized dog, by the inhibition of isoproterenol -induced bronchodilatation after iv administration; No effect at dose up to 1 to 3 mg/kg iv; assay type: functional, organism-based
[2] = tested on: Canis familiaris; assay: Beta-adrenergic blocking activity in anesthetized dog, by the inhibition of isoproterenol -induced hypotension after iv administration; No effect at dose up to 1 to 3 mg/kg iv; assay type: functional, organism-based
[3] = tested on: Canis familiaris; assay: Beta-adrenergic blocking activity in anesthetized dog, by the inhibition of isoproterenol -induced tachycardia after iv administration; No effect at dose up to 1 to 3 mg/kg iv; assay type: functional, organism-based
[4] = tested on: Canis familiaris; assay: Beta-adrenergic blocking activity in anesthetized dog, by the inhibition of isoproterenol -induced bronchodilatation after iv administration; assay type: functional
[5] = tested on: Canis familiaris; assay: Beta-adrenergic blocking activity in anesthetized dog, by the inhibition of isoproterenol -induced hypotension after iv administration; assay type: functional
[6] = tested on: Canis familiaris; assay: Beta-adrenergic blocking activity in anesthetized dog, by the inhibition of isoproterenol -induced tachycardia after iv administration; assay type: functional
[7] = tested on: Canis familiaris; assay: Beta-adrenergic blocking activity in anesthetized dog, by the inhibition of isoproterenol -induced bronchodilatation after iv administration; No effect at dose up to 1 to 3 mg/kg; assay type: functional, organism-based

Compound | ED50 [1] | ED50 [2] | ED50 [3] | ED50 [4] | ED50 [5] | ED50 [6] | ED50 [7]
O=C(O)C(O)COc1nsnc1N1CCOCC1 (configuration not stated) | No effect | No effect | No effect | – | – | – | –
CC(C)(C)NC[C@H](O)COc1nsnc1N1CCOCC1 [TIMOLOL] | – | – | – | 0.9 µg/kg | 2.8 µg/kg | 5.5 µg/kg | –
CC(C)(C)NCC(O)COc1nsnc1N(CCO)CC(=O)O (configuration not stated) | – | No effect | No effect | – | – | – | No effect
CC(C)(C)NCC(O)COc1nsnc1NCCO (configuration not stated) | – | – | – | 5.4 µg/kg | 19.9 µg/kg | 38.1 µg/kg | –
